Measured values as given in paper PMC10092094 (Chemmedchem, 2022).

How the values were obtained:
OGG1 [1] = biological target: T1, OGG1 (Homo sapiens, UniProt O15527); assay: biochemical
OGG1 [2] = biological target: T1, OGG1; assay: Differential scanning fluorimetry; format: binding
[3] = IC50 (CI95), biochemical inhibition, confidence interval 95 in parentheses
[4] = IC50, biochemical inhibition, single replicate

T1 sequence (O15527 whole entry): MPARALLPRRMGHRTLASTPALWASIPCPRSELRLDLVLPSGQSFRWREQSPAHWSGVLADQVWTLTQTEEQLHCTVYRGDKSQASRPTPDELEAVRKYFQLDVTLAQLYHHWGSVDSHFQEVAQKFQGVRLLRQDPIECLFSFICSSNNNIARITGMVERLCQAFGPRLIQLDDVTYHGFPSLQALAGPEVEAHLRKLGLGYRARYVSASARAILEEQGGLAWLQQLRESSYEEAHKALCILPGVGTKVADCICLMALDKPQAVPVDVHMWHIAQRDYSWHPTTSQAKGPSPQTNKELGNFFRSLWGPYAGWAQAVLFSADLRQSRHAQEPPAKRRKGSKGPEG

Structure (SMILES) | IC50 (OGG1 [1]; [3]) [nM] | DSF stabilization (ΔT) (OGG1 [2]) [K] | IC50 (OGG1 [1]; IC50 of HTS hit, concentration-response of screening hits) [nM] | IC50 (OGG1 [1]; [4]) [nM] | IC50 (CI95), biochemical inhibition (OGG1 [1]; confidence interval 95 in parentheses)
Cc1ccc(NC(=O)N2CCC(n3c(=O)[nH]c4ccccc43)CC2)cc1 [Compound 4, N‐(4‐methylphenyl)‐4‐(2‐oxo‐2,3‐dihydro‐1H‐1,3‐benzodiazol‐1‐yl)piperidine‐1‐carboxamide] | 19900 | 3.1 |  |  | 
O=C(Nc1ccc(Cl)cc1)N1CCC(n2c(=O)[nH]c3ccccc32)CC1 [Compound 6, N‐(4‐chlorophenyl)‐4‐(2‐oxo‐2,3‐dihydro‐1H‐1,3‐benzodiazol‐1‐yl)piperidine‐1‐carboxamide] | 5500 | 4.6 | 10000 |  | 
O=C(Nc1ccc(Br)cc1)N1CCC(n2c(=O)[nH]c3ccccc32)CC1 [Compound 7, N‐(4‐bromophenyl)‐4‐(2‐oxo‐2,3‐dihydro‐1H‐1,3‐benzodiazol‐1‐yl)piperidine‐1‐carboxamide] | 7000 | 2.1 |  |  | 
O=C(Nc1ccc(I)cc1)N1CCC(n2c(=O)[nH]c3ccccc32)CC1 [Compound 8, N‐(4‐iodophenyl)‐4‐(2‐oxo‐2,3‐dihydro‐1H‐1,3‐benzodiazol‐1‐yl)piperidine‐1‐carboxamide] | 2900 | 2.4 |  |  | 
O=C(Nc1ccc(Cl)c(Cl)c1)N1CCC(n2c(=O)[nH]c3ccccc32)CC1 [Compound 9, N‐(3,4‐dichlorophenyl)‐4‐(2‐oxo‐2,3‐dihydro‐1H‐1,3‐benzodiazol‐1‐yl)piperidine‐1‐carboxamide] | 2900 | 4.7 |  |  | 
O=C(Nc1ccccc1)N1CCC(n2c(=O)[nH]c3cc(Cl)ccc32)CC1 [Compound 11, 4‐(5‐chloro‐2‐oxo‐2,3‐dihydro‐1H‐1,3‐benzodiazol‐1‐yl)‐N‐phenylpiperidine‐1‐carboxamide] |  | 3.3 |  |  | 
O=C(Nc1cccc(F)c1)N1CCC(n2c(=O)[nH]c3cc(Cl)ccc32)CC1 [Compound 12, 4‐(5‐chloro‐2‐oxo‐2,3‐dihydro‐1H‐1,3‐benzodiazol‐1‐yl)‐N‐(3‐fluorophenyl)piperidine‐1‐carboxamide] | 35100 | 2.4 |  |  | 
O=C(Nc1ccc(Cl)cc1)N1CCC(n2c(=O)[nH]c3cc(Cl)ccc32)CC1 [Compound 16, 4‐(5‐chloro‐2‐oxo‐2,3‐dihydro‐1H‐1,3‐benzodiazol‐1‐yl)‐N‐(4‐chlorophenyl)piperidine‐1‐carboxamide] | 2000 | 3.8 |  |  | 
O=C(Nc1ccc(Br)cc1)N1CCC(n2c(=O)[nH]c3cc(Cl)ccc32)CC1 [Compound 17, 4‐(5‐chloro‐2‐oxo‐2,3‐dihydro‐1H‐1,3‐benzodiazol‐1‐yl)‐N‐(4‐bromophenyl)piperidine‐1‐carboxamide] |  | 4.1 |  | 1600 | 
O=C(Nc1ccc(I)cc1)N1CCC(n2c(=O)[nH]c3cc(Cl)ccc32)CC1 [Compound 18, 4‐(5‐chloro‐2‐oxo‐2,3‐dihydro‐1H‐1,3‐benzodiazol‐1‐yl)‐N‐(4‐iodophenyl)piperidine‐1‐carboxamide] |  | 1.6 |  |  | 
O=C(Nc1ccc(Cl)c(Cl)c1)N1CCC(n2c(=O)[nH]c3cc(Cl)ccc32)CC1 [Compound 19, 4‐(5‐chloro‐2‐oxo‐2,3‐dihydro‐1H‐1,3‐benzodiazol‐1‐yl)‐N‐(3,4‐dichlorophenyl)piperidine‐1‐carboxamide] |  | 3.1 |  |  | 
Cc1cccc2c1[nH]c(=O)n2C1CCN(C(=O)Nc2ccc(I)cc2)CC1 [Compound 20, 4‐(4‐methyl‐2‐oxo‐2,3‐dihydro‐1H‐1,3‐benzodiazol‐1‐yl)‐N‐(4‐iodophenyl)piperidine‐1‐carboxamide] | 630 | 3.8 |  |  | 
Cc1ccc2c(c1)[nH]c(=O)n2C1CCN(C(=O)Nc2ccc(I)cc2)CC1 [Compound 21, 4‐(5‐methyl‐2‐oxo‐2,3‐dihydro‐1H‐1,3‐benzodiazol‐1‐yl)‐N‐(4‐iodophenyl)piperidine‐1‐carboxamide] | 1700 | 3.8 |  |  | 
Cc1cccc2[nH]c(=O)n(C3CCN(C(=O)Nc4ccc(I)cc4)CC3)c12 [Compound 23, 4‐(7‐methyl‐2‐oxo‐2,3‐dihydro‐1H‐1,3‐benzodiazol‐1‐yl)‐N‐(4‐iodophenyl)piperidine‐1‐carboxamide] |  | 2.2 |  | 8700 | 
O=C(Nc1ccc(I)cc1)N1CCC(n2c(=O)[nH]c3c(F)cccc32)CC1 [Compound 24, 4‐(4‐fluoro‐2‐oxo‐2,3‐dihydro‐1H‐1,3‐benzodiazol‐1‐yl)‐N‐(4‐iodophenyl)piperidine‐1‐carboxamide] | 2200 | 3.9 |  |  | 
COc1cccc2c1[nH]c(=O)n2C1CCN(C(=O)Nc2ccc(I)cc2)CC1 [Compound 27, 4‐(4‐methoxy‐2‐oxo‐2,3‐dihydro‐1H‐1,3‐benzodiazol‐1‐yl)‐N‐(4‐iodophenyl)piperidine‐1‐carboxamide] | 910 | 4.2 |  |  | 
O=C(Nc1ccc(Cl)cc1)N1CCC(n2c(=O)[nH]c3c(Br)cccc32)CC1 [Compound 43, 4‐(4‐bromo‐2‐oxo‐2,3‐dihydro‐1H‐1,3‐benzodiazol‐1‐yl)‐N‐(4‐chlorophenyl)piperidine‐1‐carboxamide] | 350 | 4.2 |  |  | 
O=C(Nc1ccc(Br)cc1)N1CCC(n2c(=O)[nH]c3c(Br)cccc32)CC1 [Compound 44, 4‐(4‐bromo‐2‐oxo‐2,3‐dihydro‐1H‐1,3‐benzodiazol‐1‐yl)‐N‐(4‐bromophenyl)piperidine‐1‐carboxamide] | 190 | 4.2 |  |  | 
Cc1ccc(NC(=O)N2CCC(n3c(=O)[nH]c4c(Br)cccc43)CC2)cc1 [Compound 45, 4‐(4‐bromo‐2‐oxo‐2,3‐dihydro‐1H‐1,3‐benzodiazol‐1‐yl)‐N‐(4‐methylphenyl)piperidine‐1‐carboxamide] | 2100 | 5.1 |  |  | 
CC(C)(C)c1ccc(NC(=O)N2CCC(n3c(=O)[nH]c4c(Br)cccc43)CC2)cc1 [Compound 46, 4‐(4‐bromo‐2‐oxo‐2,3‐dihydro‐1H‐1,3‐benzodiazol‐1‐yl)‐N‐(4‐tert‐butylphenyl)piperidine‐1‐carboxamide] | 46000 | 0.0 |  |  | 

Next, values leading:

IC50 (OGG1 [1]; [3]) [nM] | DSF stabilization (ΔT) (OGG1 [2]) [K] | IC50 (OGG1 [1]; IC50 of HTS hit, concentration-response of screening hits) [nM] | IC50 (OGG1 [1]; [4]) [nM] | IC50 (CI95), biochemical inhibition (OGG1 [1]; confidence interval 95 in parentheses) | Structure (SMILES)
 | 4.1 |  | 3100 |  | COc1ccc(NC(=O)N2CCC(n3c(=O)[nH]c4c(Br)cccc43)CC2)cc1 [Compound 47, 4‐(4‐bromo‐2‐oxo‐2,3‐dihydro‐1H‐1,3‐benzodiazol‐1‐yl)‐N‐(4‐methoxyphenyl)piperidine‐1‐carboxamide]
1600 | 1.6 |  |  |  | O=C(Nc1ccc(C(F)(F)F)cc1)N1CCC(n2c(=O)[nH]c3c(Br)cccc32)CC1 [Compound 49, 4‐(4‐bromo‐2‐oxo‐2,3‐dihydro‐1H‐1,3‐benzodiazol‐1‐yl)‐N‐[4‐(trifluoromethyl)phenyl]piperidine‐1‐carboxamide]
 |  |  |  | no effect | CC(=O)Nc1ccc(NC(=O)N2CCC(n3c(=O)[nH]c4c(Br)cccc43)CC2)cc1 [Compound 51, 4‐(4‐bromo‐2‐oxo‐2,3‐dihydro‐1H‐1,3‐benzodiazol‐1‐yl)‐N‐(4‐acetamidophenyl)piperidine‐1‐carboxamide]
32200 |  |  |  |  | CN(C)c1ccc(NC(=O)N2CCC(n3c(=O)[nH]c4c(Br)cccc43)CC2)cc1 [Compound 52, 4‐(4‐bromo‐2‐oxo‐2,3‐dihydro‐1H‐1,3‐benzodiazol‐1‐yl)‐N‐[4‐(dimethylamino)phenyl]piperidine‐1‐carboxamide]
440 | 3.1 |  |  |  | O=C(Nc1ccc(Cl)c(Cl)c1)N1CCC(n2c(=O)[nH]c3c(Br)cccc32)CC1 [Compound 53, 4‐(4‐bromo‐2‐oxo‐2,3‐dihydro‐1H‐1,3‐benzodiazol‐1‐yl)‐N‐(3,4‐dichlorophenyl)piperidine‐1‐carboxamide]
300 | 1.9 |  |  |  | COc1cc(NC(=O)N2CCC(n3c(=O)[nH]c4c(Br)cccc43)CC2)ccc1Cl [Compound 54, 4‐(4‐bromo‐2‐oxo‐2,3‐dihydro‐1H‐1,3‐benzodiazol‐1‐yl)‐N‐(4‐chloro‐3‐methoxyphenyl)piperidine‐1‐carboxamide]
200 | 1.8 |  |  |  | COc1cc(NC(=O)N2CCC(n3c(=O)[nH]c4c(Br)cccc43)CC2)ccc1C [Compound 55, 4‐(4‐bromo‐2‐oxo‐2,3‐dihydro‐1H‐1,3‐benzodiazol‐1‐yl)‐N‐(3‐methoxy‐4‐methylphenyl)piperidine‐1‐carboxamide]
4400 | 5.1 |  |  |  | COc1ccc(NC(=O)N2CCC(n3c(=O)[nH]c4c(Br)cccc43)CC2)cc1OC [Compound 56, 4‐(4‐bromo‐2‐oxo‐2,3‐dihydro‐1H‐1,3‐benzodiazol‐1‐yl)‐N‐(3,4‐dimethoxyphenyl)piperidine‐1‐carboxamide]
2000 |  |  |  |  | COc1cc(NC(=O)N2CCC(n3c(=O)[nH]c4c(OC)cccc43)CC2)ccc1C [TH9525, 4‐(4‐methoxy‐2‐oxo‐2,3‐dihydro‐1H‐1,3‐benzodiazol‐1‐yl)‐N‐(3‐methoxy‐4‐methylphenyl)piperidine‐1‐carboxamide]
